Assay: In-vitro particle size distribution of the aerosol at the mouthpiece
Format: physicochemical
Method: Percentage of inhaled mass is a measured quantity, and represents the amount of aerosolized medicament which would be inhaled by a patient. Chamber percent is measured and represents the amount remaining in the chamber 22. MMAD is the mass median aerodynamic size of the aerosolized droplets 79, and FPF<5 μm denotes the fine particle fraction under 5 microns, which represents a particle size distribution well suited for delivery to the deep lung. Inhaled mass may be measured by a variety of means, such as by scintigraphy, or by washing the device or component thereof, eluting the drug and directly measuring, e.g. by titration. Inhaled mass measurements are described, for example, in European Standard EN13544-1, which is incorporated by reference herein.
In this Example an in-vitro delivered dose and particle size distribution (PSD) of the device of FIG. 1 was measured, using a dose of 400 mg of amikacin (125 mg/ml; 3.2 ml). Thus, the in-vitro percentage inhaled mass of amikacin sulfate at the mouthpiece under simulated patient breathing was quantified. Under the following conditions: Tidal Volume (TV) was 500 mL; Respiratory rate (RR) was 15 and an inspiratory to expiratory ratio was 2:3. Three devices were tested. Also, an in-vitro particle size distribution (PSD) at the was determined. Mass balance was determined at the end of the first inhaled mass test run. Breathing parameters of the ventilator were verified pre- and post-inhaled mass test runs. The experimental set up is depicted in FIG. 9.

SMILES: NCC[C@H](O)C(=O)N[C@@H]1C[C@H](N)[C@@H](O[C@H]2O[C@H](CN)[C@@H](O)[C@H](O)[C@H]2O)[C@H](O)[C@H]1O[C@H]1O[C@H](CO)[C@@H](O)[C@H](N)[C@H]1O.O=S(=O)(O)O.O=S(=O)(O)O [amikacin, amikacin sulfate]
- Fine Particle fraction of less than 5 microns (FPF<5.0 μm): about 66%
- Fine Particle Dose of less than 5 microns (FPD<5.0 μm) (400 mg dose): about 240 mg
- Mass Median Aerodynamic Diameter (MMAD) of the aerosolized particles (three hand-held devices): 3.7-3.8 μm
